Test results as given in patent publication US9096882B2, “Method of selecting antioxidants for use in topically applied compositions” (MSD Consumer Care, Inc., priority 2008, dated 2015).

Experiments:
[1] = DPPH (α,α-diphenyl-β-picrylhydrazyl) free radical test; format: biochemical; settings: 20 min, 30° C., absorbance 517 nm
Description: DPPH is a stable free radical that when dissolved in solution forms an intense purple color. […] The extent to which the color fades can be easily measured and used to rank the relative effectiveness of different materials purported to have antioxidant properties.
Measurements were recorded for antioxidant raw materials in simple methanol solutions. Samples were prepared by dissolving antioxidants at various concentrations in methanol. After sample preparation, 125 μl of the sample or pure methanol as a control were pipetted into sample test tubes followed by 2 ml of methanol and vortexed. Then 2 ml of DPPH stock solution (0.25 mM in methanol) was added to each tube (giving a total volume of 4.125 ml for each sample) and vortexed. Immediately after addition of DPPH, test tubes were covered and placed into a 30° C. water bath for 20 minutes. After the 20 minute incubation, the absorbance of each sample was recorded at 517 nm using a Perkin Elmer Lambda 40 spectrophotometer. All samples were prepared in triplicate and their mean absorbance values were used to express the efficacy of antioxidants at various concentrations in terms of antioxidant reducing units (ARU) by using the following equation: ARU=(Absorbance Methanol Control−Absorbance sample)×10 ARU values range in magnitude from 0 for “no” efficacy to about 15 for raw materials that have high antioxidant efficacy.

[2] = test system: UV-induced ROS in EpiDerm™ Skin Model (human-derived epidermal keratinocytes); test: Two photon fluorescence microscopy on EpiDerm Skin Model (UV-induced ROS down to the basal layer); format: cell-based; settings: result in words (FIG. 4)
Description: Two photon fluorescence microscopy was then conducted on a formulation containing Vitamin E and Emblica to determine ability to inhibit formation of ROS. The methods used were similar to those as described above, using confocal microscopy to visualize cells at different depths within intact pieces of skin and then fluorescence to quantify the extent of ROS formation. In the present experiment, however, instead of using human breast skin, the skin used was the EpiDerm™ Skin Model (MatTek Corporation, Mass. USA), which consists of normal, human-derived epidermal keratinocytes which have been cultured to form a multilayered, highly differentiated model of the human epidermis. […]
Prior to UVR exposure, pieces of EpiDerm™ skin were treated with dihydrorhodamine, which partitions throughout the aqueous and lipid regions of the tissue. […] The fluorescence is subsequently detected and quantified to provide an indication of the level of UV-induced ROS formed in deeper layers of the skin. By applying antioxidants topically before irradiation ROS formation can be measured and compared to the ROS formed after a placebo lotion without antioxidants was applied to the skin. In this way, the efficacy of antioxidants to neutralize ROS within deeper layers of the skin can be measured and their relative efficiencies established. […]

[3] = test system: human skin lipids; test: Ex vivo tape strip method: inhibition of UVR-induced lipid peroxidation (LOOH); format: biochemical; settings: for % Inhibition of LOOH: tape strips irradiated 10 joules/cm^2 UVR, vs placebo lotion
Description: To determine if antioxidants (Aox) maintain their effectiveness on skin in the presence of UVR, we devised a novel and more relevant model that utilizes human skin lipids as substrates for UVR-induced peroxidation. Lipids removed from skin on broad pieces of tape serve as the substrates for subsequent exposure to UVR. By applying a standard lotion with or without Aox to skin prior to tape-stripping, skin lipids can be collected on tape strips in the presence or absence of Aox that essentially maintains the same proximity that lipids and Aox had on skin. Following UVR exposure, the extent to which the presence of Aox protect lipids against peroxidation from ROS can be measured relative to lipids in the absence of antioxidants.
Human volunteers were recruited for the test and asked not to apply any products to their arms for at least two days before the test Prior to any product treatments, inner aspects of subjects' left and right forearms were wiped with a Kimwipe™ moistened with isopropanol to remove any residues that might be on the surface of the skin. Arms were wiped only once applying gentle pressure and then allowed to dry at least 10 minutes before proceeding. A template (90 mm×50 mm) was positioned on each inner forearm such that two areas could be clearly delineated. Using a superfine tip Sharpie™ pen, a mark was placed at each corner of the template to outline each application site, with two sites delineated per forearm. Using a fingercot, either placebo or antioxidant lotion was applied (100 mg) to a delineated site on a forearm. Care was taken to insure that products were applied evenly within the entire application area. After application, sites were allowed to air-dry for 30 minutes during which subjects were instructed not to allow any clothing to come into contact with test areas.
After lotions dried for 30 minutes, each site was tape-stripped using a 4.0 inch piece of Scotch® Brand No. 800 Prescription Label tape (1.5 inches wide). […] The piece of tape was positioned over a site and then using a finger the tape was gently pressed onto the skin to make good contact. […]
Each tape extract was assayed for total LOOH content using a Lipid Hydroperoxide Assay Kit (Kamiya Biomedical Company, Thousand Oaks, Calif.) following manufacturer's directions. Lipid hydroperoxides were then quantitated by measuring methylene blue formation at 675 nm using a spectrophotometer. Standard curves were prepared using cumene hydroperoxide and were linear over the range of LOOH detected in these experiments. […]
The extent to which antioxidant (Aox) or placebo lotions inhibited UVR-induced lipid hydroperoxide (LOOH) formation was calculated by inserting the values of LOOH determined from the four application sites on each volunteer into the following equation: […]

In the case of CCCCC(CC)COC(=O)C(=Cc1cc(OC)c(O)c(OC)c1)C(=O)OCC(CC)CCCC (stereo not shown) [Diethylhexyl syringylidene malonate], the “ARU (antioxidant reducing units)” value ([1]; level 1.0% in methanol) is reported as 5.7 ARU and the “antioxidant or pro-oxidant behaviour within skin exposed to UVR” value [2] is reported as “maintains its antioxidant capability”.
With CC1(C)CC[C@]2(C(=O)O)CC[C@]3(C)C(=CC[C@@H]4[C@@]5(C)C[C@@H](O)[C@H](O)[C@@](C)(CO)[C@@H]5CC[C@]43C)[C@@H]2C1 [Arjunolic acid (1%), Arjunolic acid] the “ARU (antioxidant reducing units)” value ([1]; level 1.0% in methanol) was 0.4 ARU.
In the case of C[N+](C)(C)[C@@H](Cc1c[nH]c(=S)[nH]1)C(=O)[O-] [Ergothiotaine], the “ARU (antioxidant reducing units)” value ([1]; level 0.1% in methanol) is reported as 0.0 ARU.
For CC(=O)N[C@@H](CS)C(=O)O [n-Acetyl cysteine], the “ARU (antioxidant reducing units)” value ([1]; level 0.1% in methanol) was 9.9 ARU.
In the case of Cc1c(C)c2c(c(C)c1O)CCC(C)(CCCC(C)CCCC(C)CCCC(C)C)O2 (stereo not drawn) [Vitamin E, dl alpha tocopherol], the “ARU (antioxidant reducing units)” value ([1]; level 0.5% in methanol) is reported as 6.5 ARU, the “% Inhibition of LOOH” value ([3]; 0.05% in lotion) is reported as −3.40% and the “% Inhibition of LOOH” value ([3]; 0.10% in lotion) is reported as 28.4%. The “% Inhibition of LOOH” value ([3]; 0.25% in lotion) was 61.0% and the “protection of skin lipids against UVR-induced peroxidation (FIG. 1)” value ([3]; result in words, FIG. 1) was “protects skin lipids in a dose dependant manner”.
